Experimental data reported in PMC10380188, “A Random Forest Model for Peptide Classification Based on Virtual Docking Data” (International Journal of Molecular Sciences, 2023).
No end group written: not given here.

Each molecule was assayed against porcine epidemic diarrhea virus spike (PEDV S) protein (Porcine epidemic diarrhea virus, UniProt Q91AV1) (assay: SPR affinity assay, KD of six-amino-acid peptides to PEDV S protein). Conditions: Receptor PEDV S; PEDV peptide dataset used for model performance validation; value repeated on each docking-pose line.
Chain of porcine epidemic diarrhea virus spike (PEDV S) protein (Q91AV1 26-1383): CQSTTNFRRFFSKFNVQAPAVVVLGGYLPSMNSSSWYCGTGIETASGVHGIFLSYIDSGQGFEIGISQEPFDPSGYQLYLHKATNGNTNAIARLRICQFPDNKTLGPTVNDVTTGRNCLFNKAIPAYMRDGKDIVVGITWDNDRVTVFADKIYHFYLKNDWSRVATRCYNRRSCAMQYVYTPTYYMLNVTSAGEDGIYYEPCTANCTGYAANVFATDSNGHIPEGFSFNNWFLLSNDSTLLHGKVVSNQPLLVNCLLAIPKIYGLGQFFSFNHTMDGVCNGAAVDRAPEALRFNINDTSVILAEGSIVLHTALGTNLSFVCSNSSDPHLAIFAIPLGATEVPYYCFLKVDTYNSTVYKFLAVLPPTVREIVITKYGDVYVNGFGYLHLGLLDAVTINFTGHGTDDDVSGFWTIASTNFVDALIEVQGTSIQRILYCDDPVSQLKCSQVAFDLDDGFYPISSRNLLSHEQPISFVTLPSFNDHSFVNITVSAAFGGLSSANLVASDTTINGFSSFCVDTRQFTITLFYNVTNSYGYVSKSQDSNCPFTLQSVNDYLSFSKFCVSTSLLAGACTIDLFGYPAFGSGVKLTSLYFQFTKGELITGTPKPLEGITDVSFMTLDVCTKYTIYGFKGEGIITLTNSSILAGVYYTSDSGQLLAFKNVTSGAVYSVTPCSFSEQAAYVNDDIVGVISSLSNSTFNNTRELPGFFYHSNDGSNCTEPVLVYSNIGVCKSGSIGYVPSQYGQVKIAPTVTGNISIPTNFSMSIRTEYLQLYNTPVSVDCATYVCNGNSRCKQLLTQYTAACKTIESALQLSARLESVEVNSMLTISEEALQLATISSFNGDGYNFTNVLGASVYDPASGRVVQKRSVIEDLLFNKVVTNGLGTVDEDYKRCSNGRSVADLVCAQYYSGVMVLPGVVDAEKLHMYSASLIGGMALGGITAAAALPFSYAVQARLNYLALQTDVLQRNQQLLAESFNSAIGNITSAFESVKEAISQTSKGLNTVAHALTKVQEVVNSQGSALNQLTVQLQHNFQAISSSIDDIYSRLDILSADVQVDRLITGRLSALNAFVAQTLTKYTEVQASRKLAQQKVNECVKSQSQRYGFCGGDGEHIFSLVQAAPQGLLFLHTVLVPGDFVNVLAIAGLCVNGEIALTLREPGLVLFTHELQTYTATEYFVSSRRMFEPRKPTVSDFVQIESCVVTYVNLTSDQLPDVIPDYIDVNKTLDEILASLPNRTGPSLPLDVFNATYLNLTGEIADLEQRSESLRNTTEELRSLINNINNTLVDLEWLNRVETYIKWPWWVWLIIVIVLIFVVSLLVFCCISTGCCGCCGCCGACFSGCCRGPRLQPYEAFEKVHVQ
Format: binding
Method: (§1) Equilibrium dissociation constants (KD) between all 194 (115 + 79) peptides and their receptor proteins were determined by SPR using the Biacore X100 instrument. Proteins were coupled to the CM5 chip by the EDC/NHS(1-Ethyl-3-(3′-dimethylaminopropyl) carbodiimide/n-Hydroxysuccinimide) method (GE HealthCare, Chicago, IL, USA), followed by running HBS-EP (HEPES Buffered Saline–EDTA–Surfactant P20) buffer (GE HealthCare, USA) that flowed through the entire pipeline. The peptide was diluted in six different concentrations with HBS-EP buffer and flowed into the machine from low to high, and its resonance signal change was detected separately. In each cycle, the peptide solution flowed through the chip at a constant flow rate of 30 μL/min for 120 s, and the peptide reacted fully with the protein, followed by HBS-EP buffer flowing through the chip at the same rate for 120 s, and the peptide was partially dissociated from the protein. Finally, the peptides bound to the proteins were completely eluted off with 0.25% SDS solution for the next cycle until all peptides were detected. The KD between each peptide and protein was calculated and analyzed using Biacore X100 Evaluation Software (Version 2.1) to determine its affinity.
Following the methods described above, a totally new dataset was constructed to further verify the performance of the constructed model. […] Meanwhile, the PEDV peptides were synthesized and tested by SPR successively, and the obtained KD values were further used to define the class of each peptide based on the criteria described above. Finally, the new 6-amino-acid peptide dataset for PEDV S combining all scores of the important features and class information was built to further test the predictive correctness of the RF model (Supplementary Table S2).
Work on N=C(N)NCCC[C@H](NC(=O)[C@H](CCCCN)NC(=O)[C@H](CO)NC(=O)[C@H](CCCCN)NC(=O)[C@H](Cc1c[nH]c2ccccc12)NC(=O)[C@@H](N)Cc1ccccc1)C(=O)O [DPL_1031] yielded a Kd of 2.16 µM. Work on FWKAKQ [DPL_1033] yielded a Kd of 45.5 µM. FWKEAK [DPL_1032] gave a Kd of 7.72 µM. FWKISH [DPL_1030] was tested, and the Kd was 28 µM. FWKQNKCR [DPL_1034] gave a Kd of 24.2 µM. FWKQNKFL [DPL_1035] was tested, and the Kd was 15 µM. WHFCQH [DPL_1038] showed a Kd of 0.16 µM. With WHFEYF [DPL_1043] the Kd was 43.7 µM. WHFFKT [DPL_1039] gave a Kd of 25.7 µM. With WHFHWP [DPL_1045] the Kd was 176 µM. WHFKYR [DPL_1041] showed a Kd of 0.0015 µM. In the case of WHFMIY [DPL_1040], the Kd is reported as 179 µM. For WHFNRP [DPL_1046], the Kd was 65.2 µM. In the case of WHFQNQ [DPL_1037], the Kd is reported as 3.23 µM. In the case of WHFSKC [DPL_1036], the Kd is reported as 3.22 µM. In the case of WHFWIV [DPL_1042], the Kd is reported as 15.2 µM. With WHFWWQ [DPL_1044] the Kd was 88.5 µM.

Same assay, conditions: Receptor PEDV S; SPR; value repeated on each docking-pose line of the peptide
Work on KHQAHH [DPL_1060] yielded a Kd of 0.0431 µM. KHQWKY [DPL_1062] was tested, and the Kd was 326 µM. RKQHCK [DPL_1057] showed a Kd of 1.53 µM. RKQHIS [DPL_1056] gave a Kd of 384 µM. RKQHLL [DPL_1055] showed a Kd of 1 µM. Work on RKQYWQ [DPL_1058] yielded a Kd of 728 µM.

Same assay, conditions: SPR, peptide to PEDV S protein; value repeated on each docking-pose line of the peptide
Molecule FWKCDV [DPL_1022] has a Kd of 116 µM. In the case of FWKFNE [DPL_1027], the Kd is reported as 56.6 µM. FWKHEK [DPL_1025] was tested, and the Kd was 132 µM. With FWKHRI [DPL_1029] the Kd was 36 µM. In the case of FWKLWS [DPL_1024], the Kd is reported as 0.987 µM. In the case of FWKWWW [DPL_1026], the Kd is reported as 17.7 µM. FWKYAW [DPL_1028] gave a Kd of 56.8 µM. FWKYNT [DPL_1023] was tested, and the Kd was 32.5 µM.

Same assay, conditions: SPR, receptor PEDV S; value repeated on each of the 20 docking-pose lines per peptide
Molecule FWKFWK [DPL_1018] has a Kd of 25.4 µM. FWKHDI [DPL_1017] was tested, and the Kd was 56.2 µM. With FWKKED [DPL_1020] the Kd was 7.04 µM. Work on FWKPDQ [DPL_1019] yielded a Kd of 16.7 µM. With FWKPKR [DPL_1021] the Kd was 39.5 µM. With FWKQNK [DPL_1013] the Kd was 1190 µM. With FWKSWH [DPL_1016] the Kd was 34.9 µM. FWKWHW [DPL_1014] showed a Kd of 0.136 µM. Work on FWKYHE [DPL_1015] yielded a Kd of 43.4 µM.

Same assay, conditions: receptor PEDV S; PEDV peptide dataset for model performance validation; value repeated on each of the peptide's 20 lines
KHQHFG [DPL_1063] showed a Kd of 9.99 µM. KHQKRC [DPL_1067] was tested, and the Kd was 0.139 µM. Work on KHQVHR [DPL_1064] yielded a Kd of 9.82 µM.

Same assay, conditions: receptor PEDV S; PEDV peptide dataset used for model performance validation; same value repeated on each line of a peptide
RKQFDK [DPL_1051] gave a Kd of 0.00736 µM. RKQGVK [DPL_1054] was tested, and the Kd was 192 µM. In the case of RKQICW [DPL_1053], the Kd is reported as 21.8 µM. In the case of RKQKDW [DPL_1049], the Kd is reported as 0.35 µM. RKQSHK [DPL_1052] was tested, and the Kd was 44.5 µM. RKQWPQ [DPL_1050] was tested, and the Kd was 0.556 µM. Work on WHFGSK [DPL_1047] yielded a Kd of 69.8 µM. In the case of WHFMIK [DPL_1048], the Kd is reported as 0.13 µM.

What follows are molecules tested against T1, amyloid β-protein 42 (Aβ-42) (Homo sapiens, UniProt P05067) (assay: SPR affinity assay (Biacore X100), KD of peptides to Aβ-42). Conditions: Biacore X100, protein coupled to CM5 chip, HBS-EP buffer, six peptide concentrations, same value repeated on each docking-run line.
T1 construct: amyloid β-protein 42 (Aβ-42, n = 79)
T1 sequence (P05067 672-713 limits assumed): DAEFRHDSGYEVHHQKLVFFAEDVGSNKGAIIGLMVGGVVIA
Format: binding
Method: as §1
YVRHGH [DPL_1069] gave a Kd of 37.1 µM.
